Square brackets hold non-standard residues; d marks the D form. Peptide text beside a SMILES is read from it. Hmp(2R,3S) = CC[C@H](C)[C@@H](O)C(=O)O; Sta = CC(C)C[C@H](N)[C@@H](O)CC(=O)O; dNMeF = CN[C@H](Cc1ccccc1)C(=O)O; NMeQ = CN[C@@H](CCC(N)=O)C(=O)O

We go through 2 molecules from ChEMBL document CHEMBL1156023, “Grassystatins A-C from marine cyanobacteria, potent cathepsin E inhibitors that reduce antigen presentation” (J Med Chem, 2009).

The target in test [1] is Disintegrin and metalloproteinase domain-containing protein 9 (Homo sapiens, UniProt Q13443). As to the kind of experiment: Inhibition of ADAM9.
The target in test [2] is Disintegrin and metalloproteinase domain-containing protein 10 (Homo sapiens, UniProt O14672). As to the kind of experiment: Inhibition of ADAM10.
Test [3] has as its target Disintegrin and metalloproteinase domain-containing protein 17 (Homo sapiens, UniProt P78536).

Disintegrin and metalloproteinase domain-containing protein 9, sequence (Q13443 whole entry, the tested form may be a part): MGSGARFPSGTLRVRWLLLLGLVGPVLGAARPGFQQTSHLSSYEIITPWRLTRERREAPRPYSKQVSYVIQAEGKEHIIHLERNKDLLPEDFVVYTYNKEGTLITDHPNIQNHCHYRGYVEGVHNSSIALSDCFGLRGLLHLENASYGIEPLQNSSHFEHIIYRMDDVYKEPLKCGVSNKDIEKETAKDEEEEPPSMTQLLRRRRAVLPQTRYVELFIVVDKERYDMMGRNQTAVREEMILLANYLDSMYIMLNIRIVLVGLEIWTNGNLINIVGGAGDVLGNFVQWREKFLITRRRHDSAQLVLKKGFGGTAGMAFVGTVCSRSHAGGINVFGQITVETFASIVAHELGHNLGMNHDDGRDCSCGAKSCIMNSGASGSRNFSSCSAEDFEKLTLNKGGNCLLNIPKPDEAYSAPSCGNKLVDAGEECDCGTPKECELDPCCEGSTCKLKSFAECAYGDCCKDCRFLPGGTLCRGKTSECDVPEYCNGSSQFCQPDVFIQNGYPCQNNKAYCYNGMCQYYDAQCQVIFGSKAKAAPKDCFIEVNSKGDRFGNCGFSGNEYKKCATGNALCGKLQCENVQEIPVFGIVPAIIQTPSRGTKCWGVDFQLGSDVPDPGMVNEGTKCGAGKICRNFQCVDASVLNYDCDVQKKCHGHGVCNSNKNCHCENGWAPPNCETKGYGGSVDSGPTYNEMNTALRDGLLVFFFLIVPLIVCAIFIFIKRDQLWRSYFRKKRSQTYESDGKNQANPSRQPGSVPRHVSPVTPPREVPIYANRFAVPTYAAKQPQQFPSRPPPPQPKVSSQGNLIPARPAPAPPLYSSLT
Disintegrin and metalloproteinase domain-containing protein 10, sequence (O14672 whole entry, the tested form may be a part): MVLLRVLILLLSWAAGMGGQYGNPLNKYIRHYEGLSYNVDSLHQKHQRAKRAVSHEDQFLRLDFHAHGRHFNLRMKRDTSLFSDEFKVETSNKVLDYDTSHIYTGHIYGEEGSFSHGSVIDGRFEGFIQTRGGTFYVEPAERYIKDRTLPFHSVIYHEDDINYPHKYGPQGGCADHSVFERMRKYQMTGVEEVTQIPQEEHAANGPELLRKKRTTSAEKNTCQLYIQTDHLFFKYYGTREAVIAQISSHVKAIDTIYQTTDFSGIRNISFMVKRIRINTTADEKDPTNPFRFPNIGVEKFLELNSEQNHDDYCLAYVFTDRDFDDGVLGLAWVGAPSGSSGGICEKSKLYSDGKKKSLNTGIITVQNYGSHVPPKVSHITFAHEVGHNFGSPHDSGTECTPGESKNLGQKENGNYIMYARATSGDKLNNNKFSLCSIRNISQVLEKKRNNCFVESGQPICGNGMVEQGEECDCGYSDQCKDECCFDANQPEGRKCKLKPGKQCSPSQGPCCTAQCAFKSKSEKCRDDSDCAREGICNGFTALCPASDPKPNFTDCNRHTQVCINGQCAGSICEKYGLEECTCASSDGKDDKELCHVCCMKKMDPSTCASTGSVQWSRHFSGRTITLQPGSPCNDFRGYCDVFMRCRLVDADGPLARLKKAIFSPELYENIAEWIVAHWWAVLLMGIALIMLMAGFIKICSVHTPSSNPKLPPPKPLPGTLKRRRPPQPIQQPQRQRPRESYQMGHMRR
Disintegrin and metalloproteinase domain-containing protein 17, sequence (P78536 whole entry, the tested form may be a part): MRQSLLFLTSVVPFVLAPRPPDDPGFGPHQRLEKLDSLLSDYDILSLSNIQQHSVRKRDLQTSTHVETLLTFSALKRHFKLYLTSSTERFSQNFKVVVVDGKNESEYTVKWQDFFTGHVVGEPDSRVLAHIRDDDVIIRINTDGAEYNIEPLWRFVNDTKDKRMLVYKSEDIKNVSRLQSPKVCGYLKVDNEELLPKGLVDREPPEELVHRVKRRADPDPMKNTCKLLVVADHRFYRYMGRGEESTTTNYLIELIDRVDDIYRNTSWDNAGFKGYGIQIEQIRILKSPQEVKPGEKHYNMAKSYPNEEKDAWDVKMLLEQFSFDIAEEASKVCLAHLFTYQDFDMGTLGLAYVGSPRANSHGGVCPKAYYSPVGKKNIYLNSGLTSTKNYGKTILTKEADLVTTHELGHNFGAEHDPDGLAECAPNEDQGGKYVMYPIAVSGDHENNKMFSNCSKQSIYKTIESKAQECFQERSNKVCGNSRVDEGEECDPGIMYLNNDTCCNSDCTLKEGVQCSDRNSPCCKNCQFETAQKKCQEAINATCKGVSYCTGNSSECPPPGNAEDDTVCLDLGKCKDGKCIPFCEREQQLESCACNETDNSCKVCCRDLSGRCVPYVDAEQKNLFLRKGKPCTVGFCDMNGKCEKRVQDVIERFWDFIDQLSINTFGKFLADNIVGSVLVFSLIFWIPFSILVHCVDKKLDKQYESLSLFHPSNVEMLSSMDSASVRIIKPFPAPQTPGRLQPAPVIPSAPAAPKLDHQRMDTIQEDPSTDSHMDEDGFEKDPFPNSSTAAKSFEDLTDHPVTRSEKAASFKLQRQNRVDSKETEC

Regarding `CNC(=O)[C@H](Cc1c[nH]c2ccccc12)NC(=O)[C@@H](CC(=O)NO)CC(C)C` [ILOMASTAT], the IC50 was determined as 56.3 nM in test [1], 263 nM in test [2] and 13.1 nM in test [3].
For `CC[C@H](C)[C@H](NC(=O)C[C@H](O)[C@H](CC(C)C)NC(=O)[C@H](CCC(N)=O)N(C)C(=O)[C@H](CC(C)C)NC(=O)[C@H](O)[C@@H](C)CC)C(=O)NCC(=O)N(C)[C@H](Cc1ccccc1)C(=O)N1CCC[C@H]1C(=O)OC` [GRASSYSTATIN C] ({Hmp(2R,3S)}-L[NMeQ][Sta]IG[dNMeF]P-OMe), the IC50 in test [1] and in test [2] was over 100000 nM throughout.

One may read the IC50 as the concentration needed to halve the response being measured. A high value points to a need for much substance.
